Experimental data: patent publication US4868321A, “Isothiocyanate intermediates” (FMC Corporation, priority 1988, dated 1989)

How the values were obtained:
Type in all cases: in vivo
Cotton [1] = test: Postemergence Herbicidal Activity, Cotton; conditions: Gossypium hirsutum, post-emergence
Text: (§1) The herbicidal data in the following Tables 3 and 4 was obtained in the manner described in PCT published application no. WO 85/01939, previously mentioned, usually employing solutions of the herbicidal compound in 50/50 acetone/water mixtures. In those tables, the test compounds are identified by numbers which correspond to those in Table 1, "kg/ha" is kilograms per hectare, and "% C" is percent control.

Soybean [2] = test: Postemergence Herbicidal Activity, Soybean; conditions: Glycine max, post-emergence
Text: (§2) The herbicidal data in the following Tables 3 and 4 was obtained in the manner described in PCT published application no. […] In those tables, the test compounds are identified by numbers which correspond to those in Table 1, "kg/ha" is kilograms per hectare, and "% C" is percent control.

Johnsongrass [3] = test: Preemergence Herbicidal Activity, Johnsongrass; conditions: Sorghum halepense, pre-emergence
Text: as §2

Field Corn [4] = test: Postemergence Herbicidal Activity, Field Corn; conditions: Zea mays, post-emergence
Text: as §2

Barnyardgrass [5] = test: Preemergence Herbicidal Activity, Barnyardgrass; conditions: Echinochloa crus-galli, pre-emergence
Text: as §2

Cotton [6] = test: Preemergence Herbicidal Activity, Cotton; conditions: Gossypium hirsutum, pre-emergence
Text: as §1

Field Corn [7] = test: Preemergence Herbicidal Activity, Field Corn; conditions: Zea mays, pre-emergence
Text: as §2

Wheat [8] = test: Postemergence Herbicidal Activity, Wheat; conditions: Triticum aestivum, post-emergence
Text: as §2

Soybean [9] = test: Preemergence Herbicidal Activity, Soybean; conditions: Glycine max, pre-emergence
Text: as §2

Morningglory [10] = test: Postemergence Herbicidal Activity, Morningglory; conditions: Ipomoea, post-emergence
Text: as §1

Green Foxtail [11] = test: Postemergence Herbicidal Activity, Green Foxtail; conditions: Setaria viridis, post-emergence
Text: as §2

Velvetleaf [12] = test: Preemergence Herbicidal Activity, Velvetleaf; conditions: Abutilon theophrasti, pre-emergence
Text: as §1

Barnyardgrass [13] = test: Postemergence Herbicidal Activity, Barnyardgrass; conditions: Echinochloa crus-galli, post-emergence
Text: as §2

Johnsongrass [14] = test: Postemergence Herbicidal Activity, Johnsongrass; conditions: Sorghum halepense, post-emergence
Text: as §2

Velvetleaf [15] = test: Postemergence Herbicidal Activity, Velvetleaf; conditions: Abutilon theophrasti, post-emergence
Text: as §1

Green Foxtail [16] = test: Preemergence Herbicidal Activity, Green Foxtail; conditions: Setaria viridis, pre-emergence
Text: as §2

Morningglory [17] = test: Preemergence Herbicidal Activity, Morningglory; conditions: Ipomoea, pre-emergence
Text: as §1

Wheat [18] = test: Preemergence Herbicidal Activity, Wheat; conditions: Triticum aestivum, pre-emergence
Text: as §2

Field Bindweed [19] = test: Postemergence Herbicidal Activity, Field Bindweed; conditions: post-emergence, 8.0 kg/ha
Text: as §1

Field Bindweed [20] = test: Preemergence Herbicidal Activity, Field Bindweed; conditions: pre-emergence, 8.0 kg/ha
Text: as §1

Rice = test: Preemergence Herbicidal Activity, Rice; conditions: Oryza sativa, pre-emergence, 0.5 kg/ha
Text: as §2

## CS(=O)(=O)N(c1cc(-n2nnn(CCCF)c2=O)c(F)cc1Cl)S(C)(=O)=O [Compound 9]
Cotton [1]; 1.0 kg/ha
  plant injury at 1000 g/ha: 100%
Soybean [2]; 1.0 kg/ha
  plant injury at 1000 g/ha: 30%
Johnsongrass [3]; 1.0 kg/ha
  pest or weed control at 1000 g/ha: 80%
Field Corn [4]; 1.0 kg/ha
  plant injury at 1000 g/ha: 30%
Barnyardgrass [5]; 1.0 kg/ha
  pest or weed control at 1000 g/ha: 100%
Cotton [6]; 1.0 kg/ha
  plant injury at 1000 g/ha: 100%
Field Corn [7]; 1.0 kg/ha
  plant injury at 1000 g/ha: 100%
Wheat [8]; 1.0 kg/ha
  plant injury at 1000 g/ha: 80%
Soybean [9]; 1.0 kg/ha
  plant injury at 1000 g/ha: 50%
Morningglory [10]; 1.0 kg/ha
  pest or weed control at 1000 g/ha: 100%
Green Foxtail [11]; 1.0 kg/ha
  pest or weed control at 1000 g/ha: 60%
Velvetleaf [12]; 1.0 kg/ha
  pest or weed control at 1000 g/ha: 100%
Barnyardgrass [13]; 1.0 kg/ha
  pest or weed control at 1000 g/ha: 100%
Johnsongrass [14]; 1.0 kg/ha
  pest or weed control at 1000 g/ha: 70%
Velvetleaf [15]; 1.0 kg/ha
  pest or weed control at 1000 g/ha: 100%
Green Foxtail [16]; 1.0 kg/ha
  pest or weed control at 1000 g/ha: 100%
Morningglory [17]; 1.0 kg/ha
  pest or weed control at 1000 g/ha: 100%
Wheat [18]; 1.0 kg/ha
  plant injury at 1000 g/ha: 90%

## CCS(=O)(=O)N(c1cc(-n2nnn(CCCF)c2=O)ccc1Cl)S(=O)(=O)CC [Compound 18, 1-[4-chloro-3-[bis(N--ethylsulfonyl)-amino]phenyl]-1,4-dihydro-4-(3-fluoropropyl)-5H--tetrazol-5-one]
Field Bindweed [19]
  pest or weed control at 8000 g/ha: 50%
Cotton [1]; 8.0 kg/ha
  plant injury at 8000 g/ha: 60%
Soybean [2]; 8.0 kg/ha
  plant injury at 8000 g/ha: 60%
Johnsongrass [3]; 8.0 kg/ha
  pest or weed control at 8000 g/ha: 40%
Field Corn [4]; 8.0 kg/ha
  plant injury at 8000 g/ha: 30%
Barnyardgrass [5]; 8.0 kg/ha
  pest or weed control at 8000 g/ha: 20%
Cotton [6]; 8.0 kg/ha
  plant injury at 8000 g/ha: 100%
Field Corn [7]; 8.0 kg/ha
  plant injury at 8000 g/ha: 0%
Wheat [8]; 8.0 kg/ha
  plant injury at 8000 g/ha: 10%
Soybean [9]; 8.0 kg/ha
  plant injury at 8000 g/ha: 10%
Morningglory [10]; 8.0 kg/ha
  pest or weed control at 8000 g/ha: 70%
Green Foxtail [11]; 8.0 kg/ha
  pest or weed control at 8000 g/ha: 30%
Velvetleaf [12]; 8.0 kg/ha
  pest or weed control at 8000 g/ha: 95%
Barnyardgrass [13]; 8.0 kg/ha
  pest or weed control at 8000 g/ha: 30%
Johnsongrass [14]; 8.0 kg/ha
  pest or weed control at 8000 g/ha: 30%
Velvetleaf [15]; 8.0 kg/ha
  pest or weed control at 8000 g/ha: 95%
Green Foxtail [16]; 8.0 kg/ha
  pest or weed control at 8000 g/ha: 10%
Morningglory [17]; 8.0 kg/ha
  pest or weed control at 8000 g/ha: 40%
Wheat [18]; 8.0 kg/ha
  plant injury at 8000 g/ha: 0%
Field Bindweed [20]
  pest or weed control at 8000 g/ha: 30%

## CCS(=O)(=O)N(c1cc(-n2nnn(CCCF)c2=O)c(F)cc1Cl)S(=O)(=O)CC [Compound 21, 1-[4-chloro-2-fluoro-5-[bis(N--ethylsulfonyl)amino]phenyl]-1,4-dihydro-4-(3-fluoropropyl)-5H--tetrazol-5-one]
Rice
  plant injury at 500 g/ha: 80%
Johnsongrass [3]; 0.5 kg/ha
  pest or weed control at 500 g/ha: 100%
Barnyardgrass [5]; 0.5 kg/ha
  pest or weed control at 500 g/ha: 100%
Cotton [6]; 0.5 kg/ha
  plant injury at 500 g/ha: 95%
Field Corn [7]; 0.5 kg/ha
  plant injury at 500 g/ha: 90%
Soybean [9]; 0.5 kg/ha
  plant injury at 500 g/ha: 20%
Velvetleaf [12]; 0.5 kg/ha
  pest or weed control at 500 g/ha: 100%
Green Foxtail [16]; 0.5 kg/ha
  pest or weed control at 500 g/ha: 100%
Morningglory [17]; 0.5 kg/ha
  pest or weed control at 500 g/ha: 95%
Wheat [18]; 0.5 kg/ha
  plant injury at 500 g/ha: 95%
